≈ marks a conversion by molar mass, not a printed value. Where two headings read alike, the source gives them in different places.
Tests used:
[1] = test system: Salmonella bacterial strains TA98 and TA100; assay: Ames mutagenicity assay: bacteria reverse mutation screening assay; format: cell-based; settings: TA98 and TA100, presence or absence of S9
Procedure: The Ames ^(1) Salmonella bacterial strains used in the abbreviated screening assay ^(2) are TA98 and TA100. Actively growing (log phase) bacteria are incubated with test compound and trace amounts of histidine in the presence or absence of S9 for 48 hours on minimal agar plates. Test compound is dissolved in DMSO to a final concentration of 100 mg/ml. The stock is serially diluted to yield concentrations of 100, 50, 25 12.5 and 6.3 mg/ml. Fifty microliters of dosing solution is combined with top agar and buffer (or S9 mix) and poured on duplicate plates to yield effective doses of 5000, 2500, 1250, 625 and 313 μg/plate. Positive and negative controls plates are included. Formation of colonies after 48 hr incubation at 37° C. is an indication of genetic reversion, either arising spontaneously or caused by the test compound. The average number of spontaneous colonies growing on control plates is compared to the number of colonies on test plates. A fold increase of 2-3× over background is generally considered a positive response for mutagenicity. • 1. Maron, D. M. and Ames, B. N. (1983). “Revised Methods for the Salmonella Mutagenicity Test”. Mutat. Res. 113, 173-215. • 2. D. A. Burke, D. J. Wedd, and B. Burlinson (1996). “Use of the Miniscreen assay to screen novel compounds for bacterial mutagenicity in the pharmaceutical industry”. Mutagenesis 11: 201-205.

human CB1R = target: T1, human CB1R (Homo sapiens, UniProt P21554); assay: CB1R mediated modulation of cAMP synthesis; format: cell-based; settings: CHO cells expressing human CB1R, forskolin-stimulated cAMP
T1 construct: host or cells: CHO cells
Procedure: Compounds of the invention are evaluated for their CB1 agonist or inverse agonistic activity in accordance with the following experimental method.
(§1) CHO cells expressing human CB1R (Euroscreen) are plated at a density of 5000 cells per well in 384 well plates and incubated overnight at 37° C. After removing the media, the cells are treated with test compounds diluted in stimulation buffer containing 1 mM IBMX, 0.25% BSA and 10 uM Forskolin. The assay is incubated for 30 minutes at 37° C. Cells are lysed and the cAMP concentration is measured using DiscoverX—XS cAMP kit, following the manufacturer's protocol. In this setting, agonists will decrease forskolin induced production of cAMP while inverse agonists will further increase forskolin induced production of cAMP. EC50 of agonists are calculated as follows. The maximal amount of cAMP produced by forskolin compared to the level of cAMP inhibited by 1 uM CP55940 is defined as 100%. The EC50 value of each test compound is determined as the concentration at which 50% of the forskolin-stimulated cAMP synthesis is inhibited. Data is analyzed using a four-parameter logistic model. (Model 205 of XLfit 4.0).

[2] = Aqueous (equilibrium) solubility assay; format: physicochemical; settings: aqueous buffer, thermodynamic from solid, 48 hrs equilibrium
Procedure: The equilibrium solubility of compounds is determined in pH 2, 4.5, 6.8 buffers. Prior to solubility measurement, the crystalline/amorphous characteristics of the sample are determined by observing the powder form under polarized light microscope. Solubility is only measured when compound is crystalline.
Approximately 2 mg of compound are weighed out into a vial and 1-2 ml of buffer are added into the vial (pHs 2 & 4.5, use 1 ml and for pHs 6.8 and 7.4 use 2 ml of buffer). The vial is rotated for 48 hrs protected from light. After 48 hrs, the sample is transferred into an eppendorf tube and centrifuged for 10 minutes at 14,000 RPM, if the supernatant is not clear, it is filtered (PVDF filter). The clear supernatant is diluted if necessary, before analyzing via HPLC. The final pH of the supernatant or the filtrate is measured and reported. The external calibration curve is used to determine the solubility value. The percentage of extraneous peaks relative to the parent peak is monitored in the standard solution as well as the solubility sample. Preferred compounds of the invention will have a solubility of >100 μg/ml.

human CB2R = target: T2, human CB2R (Homo sapiens, UniProt P34972); assay: CB2R mediated modulation of cAMP synthesis; format: cell-based
T2 construct: host or cells: CHO cells
Procedure: Compounds of the invention are evaluated for their CB2 agonist or inverse agonistic activity in accordance with the following experimental method.
as §1, with “CB2R” for “CB1R”

[3] = Human microsomal stability assay; format: in vitro ADME; settings: human liver microsomes 1 mg protein/ml, 1 uM compound, pH 7.4
Procedure: The double time point high throughput screen for human liver microsomal metabolic stability is used to measure the in vitro metabolism of test compounds by human liver microsomal enzymes. The data collected are analyzed to calculate a half-life (t½, min) and clearance (expressed as percent hepatic blood flow, % QH) for test compounds. The assay is performed in 50 mM potassium phosphate buffer, pH 7.4 and 2.5 mM NADPH. Test samples are dissolved in DMSO and acetonitrile for a final assay concentration of 1 uM. Human liver microsomes are diluted in assay buffer to a final assay concentration of 1 mg protein/ml. Compound solution and microsome suspension are added to assay buffer for a final incubation volume of 350 ul. The preparation is incubated for 5 min in a 37° C. water bath. The reaction is started by the addition of NADPH. Volumes of 80 ul are removed from the incubation mix at 0, 5, and 30 min after the start of the reaction and added to 160 ul acetonitrile. The supernatant is transferred to 0.25 mm glass fiber filter plates and centrifuged for 5 min at 3000 rpm. Injection volumes of 10 ul are typically added to HPLC columns with formic acid in water or acetonitrile at a flow rate of 0.3 ml/min. Percent loss of parent compound is calculated from the area under each time point to determine the half-life and clearance. Preferred compounds of the invention will have a human liver microsomal stability of <25% QH.

[4] = pH 4.5 buffer, read-out: solubility at pH 4.5
[5] = pH 6.8 buffer, read-out: solubility at pH 6.8
[6] = Table XI, read-out: CB1 CAMP EC50

T1 sequence (P21554 whole entry): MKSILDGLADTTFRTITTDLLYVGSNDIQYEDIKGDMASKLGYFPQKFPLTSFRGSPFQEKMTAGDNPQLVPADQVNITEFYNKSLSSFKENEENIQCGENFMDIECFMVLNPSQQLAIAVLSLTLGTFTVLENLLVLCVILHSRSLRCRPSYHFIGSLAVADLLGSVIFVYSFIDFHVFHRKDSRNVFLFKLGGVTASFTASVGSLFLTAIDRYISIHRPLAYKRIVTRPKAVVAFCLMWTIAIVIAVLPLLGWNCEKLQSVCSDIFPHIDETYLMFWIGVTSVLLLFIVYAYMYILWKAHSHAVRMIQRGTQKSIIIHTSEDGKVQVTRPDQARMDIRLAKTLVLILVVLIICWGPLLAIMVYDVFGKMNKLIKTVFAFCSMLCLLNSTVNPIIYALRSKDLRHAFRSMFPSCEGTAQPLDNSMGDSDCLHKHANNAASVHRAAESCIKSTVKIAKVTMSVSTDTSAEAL
T2 sequence (P34972 whole entry): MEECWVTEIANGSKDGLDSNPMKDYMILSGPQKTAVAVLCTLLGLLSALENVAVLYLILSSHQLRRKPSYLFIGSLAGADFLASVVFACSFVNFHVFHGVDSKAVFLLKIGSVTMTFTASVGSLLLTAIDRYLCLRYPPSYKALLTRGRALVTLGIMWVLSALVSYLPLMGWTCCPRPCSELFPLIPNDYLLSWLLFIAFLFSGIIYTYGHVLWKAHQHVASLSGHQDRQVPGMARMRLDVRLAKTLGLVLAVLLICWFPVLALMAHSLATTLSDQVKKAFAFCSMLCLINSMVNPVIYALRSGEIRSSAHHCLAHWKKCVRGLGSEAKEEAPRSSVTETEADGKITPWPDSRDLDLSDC

Structure (SMILES) | Ames [1] | EC50 (human CB1R; CB1 CAMP EC50, Table XI) | solubility at 48 h [2, 4] | solubility at 48 h [2, 5] | EC50 (human CB2R) | HLM clearance (percent hepatic blood flow) [3] | EC50 (human CB1R; [6]) | EC50 (human CB2R; Table XI, CHO cells expressing human CB2R, forskolin-stimulated cAMP, read-out: CB2 CAMP EC50) | EC50 (human CB1R; CB1 EC50, Table II) | EC50 (human CB1R; Table II, read-out: CB1 EC50) | EC50 (human CB2R; Table II, CHO cells expressing human CB2R, forskolin-stimulated cAMP, read-out: CB2 EC50)
CC(C)(C)c1cc(NC(=O)C(C)(C)S(=O)(=O)C2CCOCC2)no1 [Example 66 WO08039645] | negative | > 50 µM | 56 µg/mL (≈ 156 µM) | 53 µg/mL (≈ 148 µM) | 0.00072 µM | 57 QH % | – | – | – | – | –
CC(C)(C)c1csc(NC(=O)C(C)(C)S(=O)(=O)C2CCOCC2)n1 [Example 67 WO08039645] | negative | 11.4 µM | 15 µg/mL (≈ 40.1 µM) | 16 µg/mL (≈ 42.7 µM) | 0.012 µM | 79 QH % | – | – | – | – | –
Cn1nc(C(C)(C)C)cc1NC(=O)C(C)(C)S(=O)(=O)C1CCOCC1 [Example 69 WO08039645] | positive | – | 1040 µg/mL (≈ 2810 µM) | 1230 µg/mL (≈ 3320 µM) | – | <30.10 QH % | > 20 µM | 0.216 µM | – | – | –
CC(C)(C)c1cc(NC(=O)C(C)(C)S(=O)(=O)c2ccc(F)cc2)no1 [Example 130 WO08014199] | negative | 2.24 µM | 5.2 µg/mL (≈ 14.1 µM) | 4.7 µg/mL (≈ 12.8 µM) | 0.0024 µM | 68 QH % | – | – | – | – | –
CC(C)(C)c1cc(NC(=O)C(C)(C)S(=O)(=O)c2ccc(F)cc2)on1 [Example 248 WO08014199] | negative | 3.29 µM | 1.68 µg/mL (≈ 4.56 µM) | 1.25 µg/mL (≈ 3.39 µM) | 0.00098 µM | 32 QH % | – | – | – | – | –
Cn1nc(C(C)(C)C)cc1NC(=O)C(C)(C)S(=O)(=O)c1ccc(F)cc1 [Example 251 WO08014199] | positive | 10.9 µM | 137 µg/mL (≈ 359 µM) | 148 µg/mL (≈ 388 µM) | 0.00257 µM | 30 QH % | – | – | – | – | –
CC(C)(C)c1csc(NC(=O)C(C)(C)S(=O)(=O)c2ccc(F)cc2)n1 [Example 252 WO08014199] | negative | 0.934 µM | 1.74 µg/mL (≈ 4.53 µM) | 1.62 µg/mL (≈ 4.21 µM) | 0.000401 µM | 85 QH % | – | – | – | – | –
CC(C)(C)n1nnc(NC(=O)C(C)(C)S(=O)(=O)C2CCOCC2)n1 [Table II compound 1] | negative | > 50 µM | > 2120 µg/mL | > 1750 µg/mL | 0.021 µM | <30.10 QH % | – | – | > 20 µM | – | –
CC(C)(C)n1nnc(NC(=O)C(C)(C)S(=O)(=O)CC2CCOCC2)n1 [Table II compound 2] | negative | > 50 µM | 391 µg/mL (≈ 1050 µM) | 353 µg/mL (≈ 945 µM) | 0.05 µM | <30.10 QH % | – | – | > 50 µM | – | –
CC[C@H](C)S(=O)(=O)C(C)(C)C(=O)Nc1nnn(C(C)(C)C)n1 [Table II compound 5] | negative | – | 1210 µg/mL (≈ 3640 µM) | 1150 µg/mL (≈ 3470 µM) | – | <30.10 QH % | > 50 µM | – | – | > 50 µM | 0.101 µM

Source: US8329735B2, “Tetrazole compounds which selectively modulate the CB2 receptor” (Boehringer Ingelheim International GmbH, priority 2010, dated 2012)
